US8815857B2 (Boehringer Ingelheim International GmbH, priority 2011, dated 2014)
Values after ≈ are worked out from the molar mass of the structure shown.

Experiments:
[1] = target: T1, human soluble guanylate cyclase alpha 1 and beta 1 subunits (sGC) stably expressed in Chinese hamster ovary cells (Homo sapiens, UniProt Q02108+Q02153); test: sGC cellular activator assay: cGMP in CHO cells expressing human sGC, preincubated with ODQ; format: cell-based; details: 40 microM ODQ preincubation, 30 min at room temperature, presence or absence of 50% human serum not given, read-out: EC50 nM, Activity of Compounds in Cellular Assay
T1 construct: expressed in transfected cells; host or cells: Chinese hamster ovary cells, stably transfected
T1 sequence (Q02108 1-690 partner): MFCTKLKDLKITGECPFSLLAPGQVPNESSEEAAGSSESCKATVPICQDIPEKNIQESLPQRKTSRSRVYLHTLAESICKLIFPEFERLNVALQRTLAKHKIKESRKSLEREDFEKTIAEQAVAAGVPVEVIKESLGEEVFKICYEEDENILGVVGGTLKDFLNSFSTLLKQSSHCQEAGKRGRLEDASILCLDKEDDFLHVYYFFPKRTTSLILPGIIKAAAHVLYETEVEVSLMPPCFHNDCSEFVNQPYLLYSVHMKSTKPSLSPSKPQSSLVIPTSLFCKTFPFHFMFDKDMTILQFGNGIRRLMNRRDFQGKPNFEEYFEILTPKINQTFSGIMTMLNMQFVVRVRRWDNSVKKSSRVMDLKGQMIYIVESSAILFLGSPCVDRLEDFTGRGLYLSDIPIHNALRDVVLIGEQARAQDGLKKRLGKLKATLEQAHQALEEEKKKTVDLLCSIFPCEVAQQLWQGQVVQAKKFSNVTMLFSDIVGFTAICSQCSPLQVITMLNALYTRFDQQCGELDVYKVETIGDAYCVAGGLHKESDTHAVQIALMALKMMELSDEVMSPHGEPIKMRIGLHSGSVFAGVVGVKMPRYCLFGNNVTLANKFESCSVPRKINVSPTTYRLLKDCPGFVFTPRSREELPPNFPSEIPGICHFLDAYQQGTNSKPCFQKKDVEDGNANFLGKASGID
T1 sequence (Q02153 1-619): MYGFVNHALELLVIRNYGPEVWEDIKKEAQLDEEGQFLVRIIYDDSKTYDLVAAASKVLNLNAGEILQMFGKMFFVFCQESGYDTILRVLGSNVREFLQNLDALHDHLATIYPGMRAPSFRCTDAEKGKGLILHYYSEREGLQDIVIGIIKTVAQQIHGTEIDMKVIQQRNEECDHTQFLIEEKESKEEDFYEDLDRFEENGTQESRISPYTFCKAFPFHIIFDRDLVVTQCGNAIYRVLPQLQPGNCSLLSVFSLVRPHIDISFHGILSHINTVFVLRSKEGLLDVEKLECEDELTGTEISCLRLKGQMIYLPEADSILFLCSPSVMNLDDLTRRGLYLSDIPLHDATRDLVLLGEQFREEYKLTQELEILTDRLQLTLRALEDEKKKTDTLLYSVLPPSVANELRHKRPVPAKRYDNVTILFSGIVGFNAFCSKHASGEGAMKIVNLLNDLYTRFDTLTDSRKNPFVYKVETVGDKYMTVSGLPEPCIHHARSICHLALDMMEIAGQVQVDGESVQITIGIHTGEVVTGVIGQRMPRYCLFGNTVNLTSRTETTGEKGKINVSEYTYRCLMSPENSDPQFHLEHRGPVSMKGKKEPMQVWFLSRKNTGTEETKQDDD
Protocol: The sGC cellular activator assay is performed in the presence and absence of 50% human serum (HS) using Chinese hamster ovary cells that have been stably transfected to express the human soluble guanylate cyclase alpha 1 and beta 1 subunits (sGC). Cells are preincubated with 40 microM 1H-[1,2,4]oxadiazolo[4,3-a]quinoxalin-1-one (ODQ), an sGC inhibitor, for one hour in buffer containing 0.1% bovine serum albumin and 3-isobutyl-1-methylxanthine (IBMX). Concentration response curves are prepared for test compounds in DMSO. An intermediate dilution of the compounds is performed in either buffer containing IBMX or type AB HS containing IBMX. Diluted compounds are added to cells and they are incubated at room temperature for thirty minutes. cGMP is measured using a CisBio homogeneous time resolved fluorescence kit and the EC50 is calculated for each compound.

[2] = Assessment of solubility: HT solubility in pION buffer, UV spectrophotometry; details: kinetic from dmso stock
[3] = pH 6.8, aqueous buffer, Solubility (pH 6.8), pH 6.8
[4] = pION system solution buffer, pH 4.5, pH 4.5, aqueous buffer, Solubility (pH 4.5), pH 4.5 buffer, 16-19 h incubation, 1.0% DMSO

Row | EC50 [1] [nM] | solubility [2, 3] [mg/mL] | solubility [2, 4] [mg/mL] | solubility ([2]; pION system solution buffer, pH 7.4, pH 7.4, aqueous buffer, Solubility (pH 7.4), pH 7.4 buffer, 16-19 h incubation, 1.0% DMSO) [mg/mL] | SMILES
1 | 260 | 0.0002 (≈ 0.352 µM) | < 0.0001 | – | Cc1ccc(OCc2ccc(CN3CCS(=O)(=O)CC3)cc2C)c(-c2csc(N3CC4(CC4C(=O)O)C3)n2)c1 (stereo not shown) [Compound 252]
2 | 380 | 0.00029 (≈ 0.522 µM) | 0.0005 (≈ 0.9 µM) | – | Cc1ccc(OCc2ccc(CN3CCS(=O)(=O)CC3)cc2C)c(-c2csc(N3CC(CC(=O)O)C3)n2)c1 [Compound 253]
3 | 450 | 0.051 (≈ 100 µM) | 0.04 (≈ 78.8 µM) | – | Cc1ccc(OCc2ccc(CN3CCOCC3)cc2C)c(-c2csc(N3CC(CC(=O)O)C3)n2)c1 [Compound 254]
4 | 480 | 0.00094 (≈ 1.56 µM) | 0.006 (≈ 9.99 µM) | – | Cc1ccc(OCc2ccc(CN3CCN(C(=O)C4CC4)CC3)cc2C)c(-c2csc(N3CC(C4(C(=O)O)CC4)C3)n2)c1 [Compound 255]
5 | 500 | 0.082 (≈ 154 µM) | 0.00069 (≈ 1.29 µM) | – | Cc1ccc(OCc2ccc(C(=O)N3CCOCC3)cc2C)c(-c2csc(N3CC4(CC4C(=O)O)C3)n2)c1 (stereo not shown) [Compound 256]
6 | 540 | 0.045 (≈ 86.6 µM) | 0.056 (≈ 108 µM) | – | Cc1ccc(OCc2ccc(CN3CCOCC3)cc2C)c(-c2csc(N3CC4(CC4C(=O)O)C3)n2)c1 (stereo not shown) [Compound 257]
7 | 550 | 0.0082 (≈ 13.6 µM) | < 0.0001 | – | COC[C@]1(C(=O)O)[C@@H]2CC[C@H]1CN(c1nc(-c3cc(C)ccc3OCc3ccc(C(=O)N4CCCCC4)cc3C)cs1)C2 [Compound 258]
8 | 580 | 0.019 (≈ 32.7 µM) | < 0.0001 | – | Cc1ccc(OCc2ccc(CN3CCS(=O)(=O)CC3)cc2C)c(-c2csc(N3CC(C4(C(=O)O)CC4)C3)n2)c1 [Compound 259]
9 | 590 | 0.014 (≈ 25.7 µM) | < 0.0001 | – | Cc1ccc(OCc2ccc(C(=O)N3CCCCC3)cc2C)c(-c2csc(N3CC(C4(C(=O)O)CC4)C3)n2)c1 [Compound 260]
10 | 710 | 0.0064 (≈ 12 µM) | 0.017 (≈ 31.9 µM) | – | Cc1ccc(OCc2ccc(CN3CCOCC3)cc2C)c(-c2csc(N3CC(C4(C(=O)O)CC4)C3)n2)c1 [Compound 261]
11 | 980 | 0.012 (≈ 19.9 µM) | < 0.0001 | – | CCCC1(C(=O)O)C2CCC1CN(c1nc(-c3cc(C)ccc3OCc3ccc(C(=O)N4CCCCC4)cc3C)cs1)C2 (stereo not shown) [Compound 262]
12 | 13 | 0.058 (≈ 102 µM) | 0.0003 (≈ 0.526 µM) | – | Cc1ccc(OCc2ccc(C(=O)N3CCCCC3)cc2C#N)c(-c2csc(N3C[C@H]4CC[C@@H](C3)[C@H]4C(=O)O)n2)c1 [Compound 263]
13 | 21 | 0.012 (≈ 21.5 µM) | 0.021 (≈ 37.6 µM) | – | Cc1ccc(OCc2ccc(CN3CCOCC3)cc2C#N)c(-c2csc(N3C[C@H]4CC[C@@H](C3)[C@H]4C(=O)O)n2)c1 [Compound 264]
14 | 42 | 0.0019 (≈ 3.04 µM) | 0.00079 (≈ 1.26 µM) | – | Cc1ccc(OCc2ccc(CN3CCN(C(=O)C4CC4)CC3)cc2C#N)c(-c2csc(N3C[C@H]4CC[C@@H](C3)[C@H]4C(=O)O)n2)c1 [Compound 265]
15 | 42 | 0.07 (≈ 122 µM) | 0.00048 (≈ 0.838 µM) | – | Cc1ccc(OCc2ccc(C(=O)N3CCOCC3)cc2C#N)c(-c2csc(N3C[C@H]4CC[C@@H](C3)[C@H]4C(=O)O)n2)c1 [Compound 266, 3-(4-{2-[2-cyano-4-(morpholine-4-carbonyl)-benzyloxy]-5-methyl-phenyl}-thiazole-2-yl)-3-aza-bicyclo[3.2.1]octane-8(syn)-carboxylic acid]
16 | 44 | 0.013 (≈ 21.4 µM) | < 0.0001 | – | Cc1ccc(OCc2ccc(CN3CCS(=O)(=O)CC3)cc2C#N)c(-c2csc(N3C[C@H]4CC[C@@H](C3)[C@H]4C(=O)O)n2)c1 [Compound 267]
17 | 7.3 | 0.07 (≈ 125 µM) | < 0.0001 | 0.038 (≈ 67.7 µM) | Cc1ccc(OCc2ccc(C(=O)N3CCOCC3)cc2C)c(-c2csc(N3C[C@H]4CC[C@@H](C3)[C@H]4C(=O)O)n2)c1 [Compound 268]
18 | 9.5 | 0.016 (≈ 27.2 µM) | 0.00028 (≈ 0.476 µM) | – | Cc1ccc(OCc2ccc(CN3CCN(C)C(=O)C3)cc2C)c(-c2csc(N3C[C@H]4CC[C@@H](C3)[C@@]4(C)C(=O)O)n2)c1 [Compound 269]
